Measurements published in patent EP0448811A1, “New pharmaceutical composition with anti-inflammatory activity” (SCLAVO S.p.A., priority 1989, dated 1991).

Legend:
plasma peptidase = settings: compared with natural tuftsin (I); cited from earlier work
[1] = system: adjuvant-induced arthritis in the rat; assay: adjuvant-induced arthritis in the rat (secondary lesion, uninjected paw volume by water plethysmometer); format: in vivo, consanguineous Lewis rats

## gThr-mLys-Pro-Arg-OH [R-T]
Plasma peptidase
  stability towards plasma peptidase: greater stability towards plasma peptidase
[1]; administered orally
  effectiveness relative to natural tuftsin: at least 10 times
[1]; intraperitoneally (i.p.), 0.1 mg/kg, three times per week until the 38th day
  reduction in secondary lesion development: appreciable reduction in secondary lesion development, which is statistically significant only during the initial days of treatment
[1]; oral (intragastric intubation), 0.1 mg/kg, three times per week from day 0 until the 38th day, paw volume from the 14th day
  anti-inflammatory activity (reduction in the volume of the uninjected paw): considerable anti-inflammatory activity
[1]; subcutaneously (s.c.), 0.1 mg/kg, three times per week until the 38th day
  reduction in secondary lesion: no statistically significant reduction in secondary lesion
